Measurements reported in ChEMBL document CHEMBL4118215, “Design and synthesis of functionalized piperazin-1yl-(E)-stilbenes as inhibitors of 17α-hydroxylase-C17,20-lyase (Cyp17)” (Bioorg Med Chem Lett, 2018).
One block for each compound: values may come before it.

Key:
[1] = target: T1, Steroid 17-alpha-hydroxylase/17,20 lyase (Homo sapiens, UniProt P05093); assay: Inhibition of recombinant CYP17 (unknown origin) expressed in human AD293 cells using [21-3H]17alpha-hydroxypregnenolone as substrate preincubated for 60 mins followed by substrate addition measured after 4 hrs Topcount method; type: cell-based
T1 sequence (P05093 whole entry): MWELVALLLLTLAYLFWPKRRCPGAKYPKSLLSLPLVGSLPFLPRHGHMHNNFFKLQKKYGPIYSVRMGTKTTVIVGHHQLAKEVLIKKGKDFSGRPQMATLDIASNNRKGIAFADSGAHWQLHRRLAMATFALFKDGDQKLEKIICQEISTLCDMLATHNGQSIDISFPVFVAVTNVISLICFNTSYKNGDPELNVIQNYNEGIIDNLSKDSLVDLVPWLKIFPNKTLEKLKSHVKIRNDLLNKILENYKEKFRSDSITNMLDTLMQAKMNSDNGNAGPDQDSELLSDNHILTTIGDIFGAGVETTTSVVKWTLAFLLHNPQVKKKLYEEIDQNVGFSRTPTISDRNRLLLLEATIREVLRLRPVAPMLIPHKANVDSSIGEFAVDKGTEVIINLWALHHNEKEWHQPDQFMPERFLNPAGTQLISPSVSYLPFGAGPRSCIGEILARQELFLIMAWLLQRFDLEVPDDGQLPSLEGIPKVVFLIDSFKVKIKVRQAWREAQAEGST

Cavia porcellus [2] = assay: AUC (0 to infinity) in guinea pig at 10 mg/kg, po by LC-MS/MS analysis; type: ADME, organism-based; set-up: dose 10 mg/kg, time infinity, route oral; settings: in vivo
Cavia porcellus [3] = assay: Half-life in guinea pig at 10 mg/kg, po by LC-MS/MS analysis; type: ADME, organism-based; settings: in vivo
Cavia porcellus [4] = assay: Cmax in guinea pig at 10 mg/kg, po by LC-MS/MS analysis; type: ADME, organism-based; set-up: dose 10 mg/kg, route oral; settings: in vivo
[5] = Tmax in guinea pig at 1 mg/kg, iv by LC-MS/MS analysis; type: ADME, organism-based, Cavia porcellus; settings: in vivo
[6] = Volume of distribution in guinea pig at 1 mg/kg, iv by LC-MS/MS analysis; type: ADME, organism-based, Cavia porcellus; settings: in vivo
[7] = Half-life in guinea pig at 1 mg/kg, iv by LC-MS/MS analysis; type: ADME, organism-based, Cavia porcellus; settings: in vivo
Homo sapiens [8] = species on record: Homo sapiens; assay: Selectivity index, ratio of IC50 for CYP19 (unknown origin) to IC50 for recombinant CYP17 (unknown origin)
Homo sapiens [9] = species on record: Homo sapiens; assay: Selectivity index, ratio of IC50 for human CYP3A4 to IC50 for recombinant CYP17 (unknown origin)
[10] = Half-life in guinea pig liver microsomes in presence of NADPH regenerating system by LC/MS/MS method; type: ADME, Cavia porcellus, microsome
[11] = Clearance in guinea pig at 1 mg/kg, iv by LC-MS/MS analysis; type: ADME, organism-based, Cavia porcellus; settings: in vivo
[12] = AUC (0 to infinity) in guinea pig at 1 mg/kg, iv by LC-MS/MS analysis; type: ADME, organism-based, Cavia porcellus; set-up: dose 1 mg/kg, route intravenous, time infinity; settings: in vivo
[13] = Cmax in guinea pig at 1 mg/kg, iv by LC-MS/MS analysis; type: ADME, organism-based, Cavia porcellus; set-up: dose 1 mg/kg, route intravenous; settings: in vivo
Cavia porcellus [14] = assay: Oral bioavailability in guinea pig at 10 mg/kg by LC-MS/MS analysis; type: ADME, organism-based; settings: in vivo

IC50 [1]: 1 nM
Structure (SMILES): O=S(=O)(C1CC1)N1CCN(c2ccc(/C=C/c3cc(F)cc(-c4ccncc4)c3)cc2)CC1

IC50 [1]: 17 nM
Structure (SMILES): N=C(N)N1CCN(c2ccc(/C=C/c3cc(Cl)cc(-c4ccncc4)c3)cc2)CC1

IC50 [1]: 34 nM
Structure (SMILES): O=S(=O)(C1CC1)N1CCN(c2ccc(/C=C/c3cc(F)cc(Cn4ccnc4)c3)cc2)CC1

IC50 [1]: 5 nM
Structure (SMILES): O=S(=O)(C(F)F)N1CCN(c2ccc(/C=C/c3cc(F)cc(-c4ccncc4)c3)cc2)CC1

AUC (Cavia porcellus [2]): 4190 ng·h/mL
t1/2 (Cavia porcellus [3]): 4.8 h
Cmax (Cavia porcellus [4]): 540 ng/mL
Tmax [5]: 0.15 h
Vd [6]: 4.05 L/kg
half-life [7]: 5.7 h
Ratio IC50 (Homo sapiens [8]): 2000
Ratio IC50 (Homo sapiens [9]): 49
half-life [10]: 1 h
clearance [11]: 8.79 mL/min/kg
AUC(0-inf) [12]: 2000 ng·h/mL
Cmax [13]: 852 ng/mL
Structure (SMILES): CCS(=O)(=O)N1CCN(c2ccc(/C=C/c3cc(F)cc(-c4ccncc4)c3)cc2)CC1

AUC (Cavia porcellus [2]): 14890 ng·h/mL
t1/2 (Cavia porcellus [3]): 6 h
Cmax (Cavia porcellus [4]): 1018 ng/mL
F (Cavia porcellus [14]): 184.2%
Tmax [5]: 0.1 h
Vd [6]: 14.8 L/kg
half-life [7]: 6 h
Ratio IC50 (Homo sapiens [8]): 2170
Ratio IC50 (Homo sapiens [9]): 151
half-life [10]: 1 h
clearance [11]: 28.5 mL/min/kg
AUC(0-inf) [12]: 586 ng·h/mL
Cmax [13]: 132 ng/mL
Structure (SMILES): CC(=O)N1CCN(c2ccc(/C=C/c3cc(F)cc(-c4ccncc4)c3)cc2)CC1

Structure (SMILES): CC(=O)N1CCN(c2ccc(OCC3COC(Cn4ccnc4)(c4ccc(Cl)cc4Cl)O3)cc2)CC1 (stereo unspecified) [KETOCONAZOLE]
half-life [10]: 0.667 h

IC50 [1]: 6 nM
Structure (SMILES): N#CCS(=O)(=O)N1CCN(c2ccc(/C=C/c3cc(Cl)cc(-c4ccncc4)c3)cc2)CC1

AUC (Cavia porcellus [2]): 2452 ng·h/mL
t1/2 (Cavia porcellus [3]): 5.25 h
IC50 [1]: 2 nM
Cmax (Cavia porcellus [4]): 271 ng/mL
Tmax [5]: 0.2 h
Vd [6]: 9.1 L/kg
half-life [7]: 5 h
Ratio IC50 (Homo sapiens [8]): 167
Ratio IC50 (Homo sapiens [9]): 1560
half-life [10]: 1 h
clearance [11]: 20.9 mL/min/kg
AUC(0-inf) [12]: 815 ng·h/mL
Cmax [13]: 203 ng/mL
Structure (SMILES): O=S(=O)(N1CCN(c2ccc(/C=C/c3cc(F)cc(-c4ccncc4)c3)cc2)CC1)C(F)(F)F

IC50 [1]: 5 nM
Structure (SMILES): O=S(=O)(C(F)F)N1CCN(c2ccc(/C=C/c3cc(Cl)cc(-c4ccncc4)c3)cc2)CC1

IC50 [1]: 5 nM
Structure (SMILES): O=S(=O)(C(F)F)N1CCN(c2ccc(/C=C/c3cc(F)cc(Cn4ccnc4)c3)cc2)CC1
